According to paper PMC11205445, “Babesia duncani Pyruvate Kinase Inhibitor Screening and Identification of Key Active Amino Acid Residues” (Microorganisms, 2024):
“And” between values parts separate entries of the source, which are not always exact repeats. Identical values can stand only once. Like-named read-outs stand apart in the source and are kept apart here.

Tests used:
BdPyK I [1] = molecular target: T1, BdPyK I (Babesia duncani, UniProt A0AAD9PKI2); experiment: Enzyme kinetics of BdPyK I with gradient concentrations of substrates PEP and ADP; conditions: substrate of BdPyK I
Method: (§2) To conduct standard enzyme kinetics analysis, we employed a spectrophotometer (BioTek, located in Winooski, VT, USA) to monitor the degradation of NADH at 340 nm wavelength. At 37 °C, the oxidation of 1 micromole of NADH per minute was defined as one unit of PyK activity. Samples were measured continuously at 2, 7, 12, 17, 22, and 27 min. In order to investigate the influence of pH, Mg^2+, and K^+ concentrations on activity, tests were conducted within the pH range of 4.0–8.0 and Mg^2+ and K^+ concentrations ranging from 0 to 200 mM, including concentrations of 0, 25, 50, 75, 100, 125, 150, 175, and 200 mM. A reaction system with a total volume of 200 mL was designed, comprising 50 mM Tris-HCl buffer (pH 7.5), 50 mM MgCl2, 20 mM KCl, 3 mM PEP (MilliporeSigma), 3 mM ADP (MilliporeSigma), 0.5 mM NADH (MilliporeSigma), 100 ng recombinant lactate dehydrogenase (rBdLDH), and 100 ng BdPyK I. Enzyme activity was assessed by calculating the initial rate of NADH degradation within the first 5 min and determining the relative percentage activity.
(§3) Subsequently, Michaelis–Menten equations for the reactants PEP and ADP were formulated based on gradient concentrations, and corresponding enzyme kinetics curves were delineated.

BdPyK I [2] = molecular target: T1, BdPyK I; experiment: BdPyK I enzyme inhibition, indirect coupled lactate dehydrogenase assay (NADH at 340 nm); format: biochemical
Source text: This study aimed to investigate the effects of six small-molecule compounds on the enzyme activity of BdPyK I. These selected compounds, including PKM2 inhibitor, shikonin, tannic acid, apigenin, pioglitazone, and rosiglitazone, were initially dissolved in their respective stock concentrations using dimethyl sulfoxide (DMSO) or absolute ethanol as solvents. Subsequently, an indirect coupling lactate dehydrogenase assay was employed to evaluate the influence of these compounds on BdPyK I enzyme activity.
To conduct standard enzyme kinetics analysis, we employed a spectrophotometer (BioTek, located in Winooski, VT, USA) to monitor the degradation of NADH at 340 nm wavelength. At 37 °C, the oxidation of 1 micromole of NADH per minute was defined as one unit of PyK activity. Samples were measured continuously at 2, 7, 12, 17, 22, and 27 min. In order to investigate the influence of pH, Mg^2+, and K^+ concentrations on activity, tests were conducted within the pH range of 4.0–8.0 and Mg^2+ and K^+ concentrations ranging from 0 to 200 mM, including concentrations of 0, 25, 50, 75, 100, 125, 150, 175, and 200 mM. A reaction system with a total volume of […] was designed, comprising 50 mM Tris-HCl buffer (pH 7.5), 50 mM MgCl2, 20 mM KCl, 3 mM PEP (MilliporeSigma), 3 mM ADP (MilliporeSigma), 0.5 mM NADH (MilliporeSigma), 100 ng recombinant lactate dehydrogenase (rBdLDH), and 100 ng BdPyK I. Enzyme activity was assessed by calculating the initial rate of NADH degradation within the first 5 min and determining the relative percentage activity.
Under the conditions of 3 mM PEP and 3 mM ADP, the influence of six different small-molecule compounds on the enzymatic activity of BdPyK I was investigated across varying concentrations (0–500 μM). […] The group with the addition of DMSO was designated as the negative control group. The inhibition rate was calculated using the following formula: Inhibitor (%) = (ΔAcontrol − ΔAsample)/ΔAcontrol × 100%. All experiments were independently repeated three times to enhance the reliability and accuracy of the results. Following completion of the experiments, enzyme activity data were analyzed using GraphPad Prism 8.0 software. IC50 values for each small-molecule compound were calculated using software analysis functions. The IC50 value represents the compound concentration required to decrease enzyme activity by 50% and serves as a fundamental parameter for evaluating the inhibitory effect of compounds on enzyme activity.

B. duncani = experiment: In vitro growth inhibition assay of Babesia duncani (SYBR Green, 72 h); format: cell-based; conditions: for parasite growth inhibition: at approximately 40 μM
vero cells [3] = experiment: Cytotoxicity assay, vero cells; format: cell-based; conditions: CC50 Vero versus IC50 B. duncani
Source text: (§1) The IC50 value represents a standard metric indicating the concentration of a drug or compound necessary to impede a biological process or inhibit cell growth. In this experiment, the IC50 values of six different compounds against B. duncani in vitro were compared with their IC50 values for BdPyK I activity. […] To contextualize these findings, the CC50 values for vero cells and HFF cells from cytotoxicity assay data were considered collectively. […] Considering the activity, selectivity, and potential toxicity, this study conducted a comprehensive evaluation of the selectivity index (SI).

HFF cells [4] = experiment: Cytotoxicity assay, HFF cells; format: cell-based; conditions: CC50 HFF versus IC50 B. duncani
Source text: as §1

vero cells [5] = test system: vero cells; parameters: method as in PMID 34603237; conditions: cited from earlier work
HFF cells [6] = test system: HFF cells; parameters: method as in PMID 34603237; conditions: cited from earlier work
[7] = parameters: method as in PMID 34603237; conditions: in vivo experiments with Babesia rodents; cited from earlier work
C=C(OP(=O)(O)O)C(=O)O = experiment: purified protein, by the assay type; conditions: other: substrate of BdPyK I, gradient concentration; pH 7.5; 37.0 °C
Method: as §2, §3

[8] = test system: Nc1ncnc2c1ncn2[C@@H]1O[C@H](COP(=O)(O)OP(=O)(O)O)[C@@H](O)[C@H]1O; experiment: purified protein, by the assay type; conditions: other: substrate of BdPyK I, gradient concentration; pH 7.5; 37.0 °C
Method: as §2, §3

BdLDH = experiment: Effect of compounds on BdLDH enzyme activity (counter-screen of the coupled assay); format: biochemical, Babesia duncani; conditions: BdLDH activity evaluated separately
[9] = Babesia duncani, in vitro culture, 72 h, Table 3, read-out: IC50 B. duncani
[10] = 3 mM PEP and 3 mM ADP, compound 0–500 μM, read-out: IC50 PyK I
[11] = Babesia duncani, 72 h incubation, SYBR Green, read-out: IC50 of B. duncani growth inhibition (Figure 10)

T1 sequence (A0AAD9PKI2 entry or part of it): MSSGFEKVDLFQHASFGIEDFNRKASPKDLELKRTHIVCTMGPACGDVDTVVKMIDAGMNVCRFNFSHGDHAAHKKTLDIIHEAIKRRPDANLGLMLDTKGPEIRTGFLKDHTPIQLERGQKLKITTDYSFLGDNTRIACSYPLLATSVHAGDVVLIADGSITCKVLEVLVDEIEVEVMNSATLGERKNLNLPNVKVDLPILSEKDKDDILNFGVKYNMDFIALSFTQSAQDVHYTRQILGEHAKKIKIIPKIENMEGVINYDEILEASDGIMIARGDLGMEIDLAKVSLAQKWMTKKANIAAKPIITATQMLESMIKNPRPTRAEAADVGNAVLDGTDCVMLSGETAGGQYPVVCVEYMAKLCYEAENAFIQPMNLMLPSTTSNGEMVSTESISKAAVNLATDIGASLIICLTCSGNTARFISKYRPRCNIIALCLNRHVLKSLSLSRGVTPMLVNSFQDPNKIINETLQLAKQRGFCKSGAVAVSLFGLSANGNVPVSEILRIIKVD

Nc1ncnc2c1ncn2[C@@H]1O[C@H](COP(=O)(O)OP(=O)(O)O)[C@@H](O)[C@H]1O [ADP]
Kcat (BdPyK I [1]): 16 S^−1 | Vmax (BdPyK I [1]; gradient concentration): 0.3234 ± 0.018 mM/min

O=c1cc(-c2ccc(O)cc2)oc2cc(O)cc(O)c12 [Apigenin]
IC50 (BdPyK I [2]): 7.49 µM | IC50 (B. duncani; [9]): 2.81 ± 1.06 µM | Selectivity Index (SI) Vero (vero cells [3]): 20.64 | Selectivity Index (SI) HFF (HFF cells [4]): 12.8 | CC50 (vero cells [5]): 58.2 ± 2.67 µM | CC50 (HFF cells [6]): 36 ± 2.95 µM | toxicity in vivo [7]: high toxicity

CC1=C(CSC(=S)N2CCCCC2)C(=O)c2ccccc2C1=O [PKM2 inhibitor]
IC50 (BdPyK I [2]; [10]): 10.9 µM | IC50 (B. duncani; [9]): 0.16 ± 0.08 µM | growth inhibition rate (B. duncani; at approximately 2 μM, 72 h): 85% | Selectivity Index (SI) Vero (vero cells [3]): 243 | Selectivity Index (SI) HFF (HFF cells [4]): 116 | CC50 (vero cells [5]): 39.3 ± 8.32 µM | CC50 (HFF cells [6]): 18.7 ± 1.99 µM

CCc1ccc(CCOc2ccc(CC3SC(=O)NC3=O)cc2)nc1 (stereo not shown) [Pioglitazone]
IC50 (BdPyK I [2]; [10]): 27.5 µM | IC50 (B. duncani; [11]): 15.4 µM | parasite growth inhibition (B. duncani; 72 h): 80%

CN(CCOc1ccc(CC2SC(=O)NC2=O)cc1)c1ccccn1 (stereo not shown) [Rosiglitazone]
IC50 (BdPyK I [2]; [10]): 7.36 µM | IC50 (B. duncani; [11]): 20.9 µM | parasite growth inhibition (B. duncani; 72 h): 80%

CC(C)=CC[C@@H](O)C1=CC(=O)c2c(O)ccc(O)c2C1=O [Shikonin]
IC50 (BdPyK I [2]; [10]): 16.5 µM | IC50 (B. duncani; [9]): 3.68 ± 0.48 µM | Selectivity Index (SI) Vero (vero cells [3]): 0.64 | Selectivity Index (SI) HFF (HFF cells [4]): 0.17 | CC50 (vero cells [5]): 2.34 ± 0.29 µM | CC50 (HFF cells [6]): 0.63 ± 0.32 µM

BdPyK I (Babesia duncani)
Km (C=C(OP(=O)(O)O)C(=O)O): 450 ± 104 µM | Vmax (C=C(OP(=O)(O)O)C(=O)O): 370 µM/min | kcat (C=C(OP(=O)(O)O)C(=O)O): 18.3 s⁻¹ | kcat/Km (C=C(OP(=O)(O)O)C(=O)O): 40100 M⁻¹ s⁻¹ | Km [8]: 310 µM and 313.6 ± 24 µM

Tannic acid
IC50 (BdPyK I [2]; [10]): 0.03 µM | IC50 (BdPyK I [2]; 3 mM PEP and 3 mM ADP, read-out: IC50 on BdPyK I (Figure 9)): 0.0332 µM | IC50 (BdPyK I [2]; Table 3, read-out: IC50 PyK I Activity): 0.03 µM | IC50 (BdLDH): 1.32 µM | IC50 (B. duncani; in vitro culture, 72 h, Table 3, read-out: IC50 B. duncani): 1.71 ± 0.33 µM | CC50 (vero cells [5]): 53 ± 2.37 µM | CC50 (HFF cells [6]): 36.5 ± 3.88 µM
